Reference: PubChem BioAssay (NCI)
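Assay format: 96-well plates, 48-hour exposure. GI50 marks 50% less growth. TGI denotes the concentration required for complete inhibition of growth.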

Columns and labels:
Assay in all cases: DTP human tumour cell line panel, 48 h
SF-539 CNS = tested on: SF-539 CNS
SR leukemia = tested on: SR leukemia
SNB-75 CNS = tested on: SNB-75 CNS
MDA-MB-231 breast = tested on: MDA-MB-231 breast
MCF7 breast = tested on: MCF7 breast
NCI/ADR-RES ovarian = tested on: NCI/ADR-RES ovarian
SNB-19 CNS = tested on: SNB-19 CNS
OVCAR-5 ovarian = tested on: OVCAR-5 ovarian
SK-MEL-5 melanoma = tested on: SK-MEL-5 melanoma
HCC-2998 colon = tested on: HCC-2998 colon
A549 NSCLC = tested on: A549 NSCLC
SF-295 CNS = tested on: SF-295 CNS
RXF 393 renal = tested on: RXF 393 renal
HS 578T breast = tested on: HS 578T breast
HT29 colon = tested on: HT29 colon
EKVX NSCLC = tested on: EKVX NSCLC
M14 melanoma = tested on: M14 melanoma
TK-10 renal = tested on: TK-10 renal
U251 CNS = tested on: U251 CNS
HOP-92 NSCLC = tested on: HOP-92 NSCLC
786-0 renal = tested on: 786-0 renal
OVCAR-3 ovarian = tested on: OVCAR-3 ovarian
HCT-116 colon = tested on: HCT-116 colon
NCI-H522 lung = tested on: NCI-H522 lung
A498 renal = tested on: A498 renal
K-562 leukemia = tested on: K-562 leukemia
LOX IMVI melanoma = tested on: LOX IMVI melanoma
RPMI-8226 leukemia = tested on: RPMI-8226 leukemia
COLO 205 colon = tested on: COLO 205 colon
OVCAR-8 ovarian = tested on: OVCAR-8 ovarian
T-47D breast = tested on: T-47D breast
SK-MEL-2 melanoma = tested on: SK-MEL-2 melanoma
UACC-62 melanoma = tested on: UACC-62 melanoma
SK-OV-3 ovarian = tested on: SK-OV-3 ovarian
MOLT-4 leukemia = tested on: MOLT-4 leukemia
MALME-3M melanoma = tested on: MALME-3M melanoma
NCI-H460 lung = tested on: NCI-H460 lung
OVCAR-4 ovarian = tested on: OVCAR-4 ovarian
BT-549 breast = tested on: BT-549 breast
SK-MEL-28 melanoma = tested on: SK-MEL-28 melanoma
UACC-257 melanoma = tested on: UACC-257 melanoma
HCT-15 colon = tested on: HCT-15 colon
CCRF-CEM leukemia = tested on: CCRF-CEM leukemia
NCI-H226 lung = tested on: NCI-H226 lung
HOP-62 NSCLC = tested on: HOP-62 NSCLC
NCI-H23 lung = tested on: NCI-H23 lung
SF-268 CNS = tested on: SF-268 CNS
DU-145 prostate = tested on: DU-145 prostate
HL-60(TB) leukemia = tested on: HL-60(TB) leukemia
SW-620 colon = tested on: SW-620 colon

SMILES: CCc1nc2ccc(Cc3ccc(C(=O)NO)cc3)cc2c(=O)n1CCc1ccccc1
- GI50 (SF-539 CNS): 1460 nM
- TGI (SF-539 CNS): 3650 nM
- GI50 (SR leukemia): 784 nM
- TGI (SR leukemia): 61000 nM
- GI50 (SNB-75 CNS): 1410 nM
- TGI (SNB-75 CNS): 3710 nM
- GI50 (MDA-MB-231 breast): 1310 nM
- TGI (MDA-MB-231 breast): 3980 nM
- GI50 (MCF7 breast): 1340 nM
- TGI (MCF7 breast): 6820 nM
- GI50 (NCI/ADR-RES ovarian): 370 nM
- TGI (NCI/ADR-RES ovarian): 4590 nM
- GI50 (SNB-19 CNS): 2070 nM
- TGI (SNB-19 CNS): 7570 nM
- GI50 (OVCAR-5 ovarian): 1360 nM
- TGI (OVCAR-5 ovarian): 12800 nM
- GI50 (SK-MEL-5 melanoma): 822 nM
- TGI (SK-MEL-5 melanoma): 2100 nM
- GI50 (HCC-2998 colon): 1440 nM
- TGI (HCC-2998 colon): 3100 nM
- GI50 (A549 NSCLC): 1150 nM
- TGI (A549 NSCLC): 2990 nM
- GI50 (SF-295 CNS): 1020 nM
- TGI (SF-295 CNS): 2600 nM
- GI50 (RXF 393 renal): 741 nM
- TGI (RXF 393 renal): 2300 nM
- GI50 (HS 578T breast): 1590 nM
- TGI (HS 578T breast): 7400 nM
- GI50 (HT29 colon): 919 nM
- TGI (HT29 colon): 4500 nM
- GI50 (EKVX NSCLC): 1210 nM
- TGI (EKVX NSCLC): 3140 nM
- GI50 (M14 melanoma): 1270 nM
- TGI (M14 melanoma): 3240 nM
- GI50 (TK-10 renal): 1280 nM
- TGI (TK-10 renal): 2890 nM
- GI50 (U251 CNS): 963 nM
- TGI (U251 CNS): 2280 nM
- GI50 (HOP-92 NSCLC): 1360 nM
- TGI (HOP-92 NSCLC): 2980 nM
- GI50 (786-0 renal): 1710 nM
- TGI (786-0 renal): 3410 nM
- GI50 (OVCAR-3 ovarian): 1150 nM
- TGI (OVCAR-3 ovarian): 3850 nM
- GI50 (HCT-116 colon): 388 nM
- TGI (HCT-116 colon): 1570 nM
- GI50 (NCI-H522 lung): 302 nM
- TGI (NCI-H522 lung): 1680 nM
- GI50 (A498 renal): 364 nM
- TGI (A498 renal): 1930 nM
- GI50 (K-562 leukemia): 1020 nM
- TGI (K-562 leukemia): > 100000 nM
- GI50 (LOX IMVI melanoma): 1160 nM
- TGI (LOX IMVI melanoma): 2500 nM
- GI50 (RPMI-8226 leukemia): 1070 nM
- TGI (RPMI-8226 leukemia): 10300 nM
- GI50 (COLO 205 colon): 871 nM
- TGI (COLO 205 colon): 2550 nM
- GI50 (OVCAR-8 ovarian): 584 nM
- TGI (OVCAR-8 ovarian): 4160 nM
- GI50 (T-47D breast): 809 nM
- TGI (T-47D breast): 5410 nM
- GI50 (SK-MEL-2 melanoma): 1620 nM
- TGI (SK-MEL-2 melanoma): 3950 nM
- GI50 (UACC-62 melanoma): 520 nM
- TGI (UACC-62 melanoma): 2640 nM
- GI50 (SK-OV-3 ovarian): 1440 nM
- TGI (SK-OV-3 ovarian): 2880 nM
- GI50 (MOLT-4 leukemia): 637 nM
- TGI (MOLT-4 leukemia): 16700 nM
- GI50 (MALME-3M melanoma): 586 nM
- TGI (MALME-3M melanoma): 2100 nM
- GI50 (NCI-H460 lung): 520 nM
- TGI (NCI-H460 lung): 2070 nM
- GI50 (OVCAR-4 ovarian): 1250 nM
- TGI (OVCAR-4 ovarian): 6090 nM
- GI50 (BT-549 breast): 1730 nM
- TGI (BT-549 breast): 4790 nM
- GI50 (SK-MEL-28 melanoma): 1470 nM
- TGI (SK-MEL-28 melanoma): 5720 nM
- GI50 (UACC-257 melanoma): 640 nM
- TGI (UACC-257 melanoma): 2470 nM
- GI50 (HCT-15 colon): 528 nM
- TGI (HCT-15 colon): 3070 nM
- GI50 (CCRF-CEM leukemia): 568 nM
- TGI (CCRF-CEM leukemia): > 100000 nM
- GI50 (NCI-H226 lung): 1240 nM
- TGI (NCI-H226 lung): 3050 nM
- GI50 (HOP-62 NSCLC): 1320 nM
- TGI (HOP-62 NSCLC): 2860 nM
- GI50 (NCI-H23 lung): 1110 nM
- TGI (NCI-H23 lung): 3890 nM
- GI50 (SF-268 CNS): 1310 nM
- TGI (SF-268 CNS): 3910 nM
- GI50 (DU-145 prostate): 1090 nM
- TGI (DU-145 prostate): 7810 nM
- GI50 (HL-60(TB) leukemia): 2250 nM
- TGI (HL-60(TB) leukemia): 83100 nM
- GI50 (SW-620 colon): 412 nM
- TGI (SW-620 colon): 2230 nM
